{"source": "patent US8003649B2", "about": "(AstraZeneca AB, priority 2007, dated 2011)"}
{"target": "T1, Androgen Receptor (AR) (Homo sapiens, UniProt P10275, T878A)", "T1 construct": "cell based immuno-fluorescence assay using the LNCaP prostate epithelial cell line; endogenous in cells; host or cells: LNCaP clone FGC (ATCC CRL-1740)", "T1 sequence (P10275 1-920 T878A)": "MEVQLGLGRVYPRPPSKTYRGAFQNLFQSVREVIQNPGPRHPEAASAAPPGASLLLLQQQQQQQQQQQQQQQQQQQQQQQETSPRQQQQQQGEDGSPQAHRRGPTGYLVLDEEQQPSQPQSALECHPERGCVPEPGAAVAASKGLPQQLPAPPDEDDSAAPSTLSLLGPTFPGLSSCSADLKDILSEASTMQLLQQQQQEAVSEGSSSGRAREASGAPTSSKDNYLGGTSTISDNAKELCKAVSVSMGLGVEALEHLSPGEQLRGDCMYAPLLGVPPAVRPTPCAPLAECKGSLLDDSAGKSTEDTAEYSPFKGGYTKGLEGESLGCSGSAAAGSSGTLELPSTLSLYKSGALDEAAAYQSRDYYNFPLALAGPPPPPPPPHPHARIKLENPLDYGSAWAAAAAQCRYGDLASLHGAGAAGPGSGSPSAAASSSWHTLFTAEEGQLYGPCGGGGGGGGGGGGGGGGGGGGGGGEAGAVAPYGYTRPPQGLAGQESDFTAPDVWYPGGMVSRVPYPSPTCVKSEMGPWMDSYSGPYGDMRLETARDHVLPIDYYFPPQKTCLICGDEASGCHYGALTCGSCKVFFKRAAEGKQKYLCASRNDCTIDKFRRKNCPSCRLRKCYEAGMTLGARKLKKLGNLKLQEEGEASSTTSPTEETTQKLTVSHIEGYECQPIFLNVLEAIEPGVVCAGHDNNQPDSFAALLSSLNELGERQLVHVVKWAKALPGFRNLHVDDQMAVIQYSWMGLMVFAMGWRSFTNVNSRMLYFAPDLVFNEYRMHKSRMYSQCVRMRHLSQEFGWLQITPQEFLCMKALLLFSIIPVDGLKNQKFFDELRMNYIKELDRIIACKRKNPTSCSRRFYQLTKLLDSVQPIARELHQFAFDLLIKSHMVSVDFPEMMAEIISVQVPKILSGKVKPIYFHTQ", "experiment": "LNCaP Androgen Receptor Down-regulation Cell Assay (immunofluorescence end point)", "type": "cell-based", "conditions": "LNCaP prostate carcinoma cells, compound incubation 20-22 hours, 50% reduction of the AR signal; read-out: Androgen Receptor Down-regulation Assay (a) IC50/μM", "in_short": "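AR loss reported as IC50 from curve fits of fluorescence dose-response data, with AR immunostained and read by laser-scanning cytometry. Compound exposure was 20-22 h at 37° C in LNCaP cells grown in 5% charcoal-stripped FBS and plated overnight beforehand.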", "units": {"DC50": "µM"}}
{"smiles": "CN(C)CCCOc1ccc(OC2CCN(c3ccc4nnc(C(F)(F)F)n4n3)CC2)cc1", "note": "[Example 430, N,N-dimethyl-3-[4-[[1-[3-(trifluoromethyl)-[1,2,4]triazolo[4,3-b]pyridazin-6-yl]piperidin-4-yl]oxy]phenoxy]propan-1-amine]", "DC50": 1.7}
{"smiles": "FC(F)(F)c1nnc2ccc(N3CCC(Oc4ccc(OCCN5CCCC5)cc4)CC3)nn12", "note": "[Example 431]", "DC50": 1.5}
{"smiles": "FC(F)(F)c1nnc2ccc(N3CCC(Oc4ccc(OCCCN5CCNCC5)cc4)CC3)nn12", "note": "[Example 433]", "DC50": 0.9}
{"smiles": "CN(C)CCOc1ccc(OC2CCN(c3ccc4nnc(C(F)(F)F)n4n3)CC2)cc1", "note": "[Example 435]", "DC50": 0.98}
{"smiles": "CN1CCC(Oc2ccc(OC3CCN(c4ccc5nnc(C(F)(F)F)n5n4)CC3)cc2)CC1", "note": "[Example 436]", "DC50": 0.75}
{"smiles": "CN1CCN(CCCOc2ccc(OC3CCN(c4ccc5nnc(C(F)(F)F)n5n4)CC3)cc2)CC1", "note": "[Example 437]", "DC50": 0.53}
{"smiles": "FC(F)(F)c1nnc2ccc(N3CCC(Oc4ccc(OCc5ccon5)cc4)CC3)nn12", "note": "[Example 438]", "DC50": 1.6}
{"smiles": "FC(F)(F)c1nnc2ccc(N3CCC(Oc4ccc(OCc5cnco5)cc4)CC3)nn12", "note": "[Example 439]", "DC50": 0.48}
{"smiles": "CN1CCN(CCOc2ccc(OC3CCN(c4ccc5nnc(C(F)(F)F)n5n4)CC3)cc2)CC1", "note": "[Example 440]", "DC50": 2.3}
{"smiles": "Cn1nccc1CCOc1ccc(OC2CCN(c3ccc4nnc(C(F)(F)F)n4n3)CC2)cc1", "note": "[Example 441]", "DC50": 0.22}
{"smiles": "Cn1nccc1COc1ccc(OC2CCN(c3ccc4nnc(C(F)(F)F)n4n3)CC2)cc1", "note": "[Example 442]", "DC50": 0.44}
{"smiles": "CN(C)CCCOc1cccc(OC2CCN(c3ccc4nnc(C(F)(F)F)n4n3)CC2)c1", "note": "[Example 443]", "DC50": 1.5}
{"smiles": "FC(F)(F)c1nnc2ccc(N3CCC(Oc4cccc(OCCCN5CCNCC5)c4)CC3)nn12", "note": "[Example 445]", "DC50": 1.6}
{"smiles": "Cc1cc(COc2cccc(OC3CCN(c4ccc5nnc(C(F)(F)F)n5n4)CC3)c2)no1", "note": "[Example 446]", "DC50": 0.7}
{"smiles": "N#Cc1ccc(OC2CCN(c3ccc4nnc(C(F)(F)F)n4n3)CC2)cn1", "note": "[Example 448, 5-[[1-[3-(trifluoromethyl)-[1,2,4]triazolo[4,3-b]pyridazin-6-yl]piperidin-4-yl]oxy]pyridine-2-carbonitrile]", "DC50": 6.3}
{"smiles": "N#Cc1cc(OC2CCN(c3ccc4nnc(C(F)(F)F)n4n3)CC2)ccn1", "note": "[Example 449, 4-[[1-[3-(trifluoromethyl)[1,2,4]triazolo[4,3-b]pyridazin-6-yl]piperidin-4-yl]oxy]pyridine-2-carbonitrile]", "DC50": 4.8}
{"smiles": "O=S(=O)(c1ccc(F)cc1)N1CC2CN(c3ccc4nnc(C(F)(F)F)n4n3)CC2C1", "note": "(centres unmarked) [Example 453]", "DC50": 5.7}
{"smiles": "COc1cccc(S(=O)(=O)N2CC3CN(c4ccc5nnc(C(F)(F)F)n5n4)CC3C2)c1", "note": "(centres unmarked) [Example 454]", "DC50": 9.2}
{"smiles": "O=S(=O)(c1cccc(F)c1)N1CCCN(c2ccc3nnc(C(F)(F)F)n3n2)CC1", "note": "[Example 456]", "DC50": 21}
{"smiles": "O=S(=O)(c1ccccc1F)N1CCCN(c2ccc3nnc(C(F)(F)F)n3n2)CC1", "note": "[Example 460]", "DC50": 5.1}
{"smiles": "COc1ccccc1OCC1CCN(c2ccc3nnc(C(F)(F)F)n3n2)CC1", "note": "[Example 462]", "DC50": 7.7}
{"smiles": "Fc1ccc(OCC2CCN(c3ccc4nnc(C(F)(F)F)n4n3)CC2)cc1", "note": "[Example 463]", "DC50": 0.98}
{"smiles": "Fc1cccc(OCC2CCN(c3ccc4nnc(C(F)(F)F)n4n3)CC2)c1", "note": "[Example 464]", "DC50": 1.4}
{"smiles": "COc1cccc(OCC2CCN(c3ccc4nnc(C(F)(F)F)n4n3)CC2)c1", "note": "[Example 466]", "DC50": "> 19"}
{"smiles": "Fc1ccccc1OCC1CCN(c2ccc3nnc(C(F)(F)F)n3n2)CC1", "note": "[Example 467]", "DC50": 4.9}
{"smiles": "FC(F)(F)c1ccc(OCC2CCN(c3ccc4nnc(C(F)(F)F)n4n3)CC2)cc1", "note": "[Example 468]", "DC50": "> 11"}
{"smiles": "N#Cc1ccccc1OCC1CCN(c2ccc3nnc(C(F)(F)F)n3n2)CC1", "note": "[Example 469]", "DC50": 1.8}
{"smiles": "FC(F)(F)c1nnc2ccc(N3CCC(COc4ccc(Cl)cc4)CC3)nn12", "note": "[Example 470]", "DC50": 4.6}
{"smiles": "FC(F)(F)c1ccccc1OCC1CCN(c2ccc3nnc(C(F)(F)F)n3n2)CC1", "note": "[Example 471]", "DC50": 2}
{"smiles": "FC(F)(F)c1nnc2ccc(N3CCC(COc4cccc(Cl)c4)CC3)nn12", "note": "[Example 473]", "DC50": 3.2}
{"smiles": "N#Cc1ccc(OCC2CCN(c3ccc4nnc(C(F)(F)F)n4n3)CC2)cc1", "note": "[Example 474]", "DC50": 0.96}
{"smiles": "FC(F)(F)c1nnc2ccc(N3CCC(COc4ccccc4Cl)CC3)nn12", "note": "[Example 475]", "DC50": "> 15"}
{"smiles": "N#Cc1cccc(OCC2CCN(c3ccc4nnc(C(F)(F)F)n4n3)CC2)c1", "note": "[Example 476]", "DC50": 3.5}
{"smiles": "FC(F)(F)c1nnc2ccc(N3CCN(Cc4c[nH]c5cnccc45)CC3)nn12", "note": "[Example 477]", "DC50": 6.3}
{"smiles": "FC(F)(F)c1nnc2ccc(N3CCN(Cc4c[nH]c5ccncc45)CC3)nn12", "note": "[Example 480]", "DC50": 9.6}
{"smiles": "FC(F)(F)c1nnc2ccc(N3CCC(COC4COC4)CC3)nn12", "note": "[Example 481]", "DC50": 6.6}
{"smiles": "FC(F)(F)COCC1CCN(c2ccc3nnc(C(F)(F)F)n3n2)CC1", "note": "[Example 482]", "DC50": 1.8}
{"smiles": "Fc1cccc(OC2CN(c3ccc4nnc(C(F)(F)F)n4n3)C2)c1", "note": "[Example 483, 6-[3-(3-fluorophenoxy)azetidin-1-yl]-3-(trifluoromethyl)[1,2,4]triazolo[4,3-b]pyridazine]", "DC50": "> 30"}
{"smiles": "Fc1ccc(OC2CN(c3ccc4nnc(C(F)(F)F)n4n3)C2)cc1", "note": "[Example 484]", "DC50": "> 14"}
{"smiles": "COc1ccc(OC2CN(c3ccc4nnc(C(F)(F)F)n4n3)C2)cc1", "note": "[Example 486]", "DC50": "> 13"}
{"smiles": "CC(C)(C)OCC1CCN(c2ccc3nnc(C(F)(F)F)n3n2)CC1", "note": "[Example 489, 6-[4-(tert-butoxymethyl)piperidin-1-yl]-3-(trifluoromethyl)[1,2,4]triazolo[4,3-b]pyridazine]", "DC50": 3.6}
{"smiles": "Fc1cccc(OCC2CN(c3ccc4nnc(C(F)(F)F)n4n3)C2)c1", "note": "[Example 490]", "DC50": 5.9}
{"smiles": "Fc1cccc(OCC2CN(c3ccc4nnc(C(F)(F)F)n4n3)C2)c1", "note": "[Example 491]", "DC50": 7.2}
{"smiles": "FC(F)(F)c1nnc2ccc(N3CC(COc4cccnc4)C3)nn12", "note": "[Example 492]", "DC50": "> 30"}
{"smiles": "COc1ccc2[nH]cc(C3CCN(c4ccc5nnc(C(F)(F)F)n5n4)CC3)c2c1", "note": "[Example 494, 6-[4-(5-methoxy-1H-indol-3-yl)piperidin-1-yl]-3-(trifluoromethyl)[1,2,4]triazolo[4,3-b]pyridazine]", "DC50": 0.43}
{"smiles": "N#Cc1ccc2[nH]cc(C3CCN(c4ccc5nnc(C(F)(F)F)n5n4)CC3)c2c1", "note": "[Example 495, 3-[1-[3-(trifluoromethyl)[1,2,4]triazolo[4,3-b]pyridazin-6-yl]piperidin-4-yl]-1H-indole-5-carbonitrile]", "DC50": 0.35}
{"smiles": "CN1CCN(C(=O)c2ccc3[nH]cc(C4CCN(c5ccc6nnc(C(F)(F)F)n6n5)CC4)c3c2)CC1", "note": "[Example 497]", "DC50": 2.8}
{"smiles": "COCCNC(=O)c1ccc2[nH]cc(C3CCN(c4ccc5nnc(C(F)(F)F)n5n4)CC3)c2c1", "note": "[Example 498]", "DC50": 2.4}
{"smiles": "CN(C)C(=O)c1ccc2[nH]cc(C3CCN(c4ccc5nnc(C(F)(F)F)n5n4)CC3)c2c1", "note": "[Example 499]", "DC50": 1.7}
{"smiles": "O=C(c1ccc2[nH]cc(C3CCN(c4ccc5nnc(C(F)(F)F)n5n4)CC3)c2c1)N1CC[C@@H](O)C1", "note": "[Example 500]", "DC50": "> 18"}
{"smiles": "O=C(c1ccc2[nH]cc(C3CCN(c4ccc5nnc(C(F)(F)F)n5n4)CC3)c2c1)N1CCOCC1", "note": "[Example 502]", "DC50": 2.2}
{"smiles": "O=C(NCCN1CCOCC1)c1ccc2[nH]cc(C3CCN(c4ccc5nnc(C(F)(F)F)n5n4)CC3)c2c1", "note": "[Example 503]", "DC50": 4.3}
{"smiles": "COCCN(C)C(=O)c1ccc2[nH]cc(C3CCN(c4ccc5nnc(C(F)(F)F)n5n4)CC3)c2c1", "note": "[Example 504]", "DC50": 1.9}
{"smiles": "O=C(c1ccc2[nH]cc(C3CCN(c4ccc5nnc(C(F)(F)F)n5n4)CC3)c2c1)N1CC[C@H](O)C1", "note": "[Example 505]", "DC50": "> 19"}
{"smiles": "FC(F)(F)c1nnc2ccc(N3CCC(c4c[nH]c5ccccc45)CC3)nn12", "note": "[Example 507, 6-[4-(1H-indol-3-yl)piperidin-1-yl]-3-(trifluoromethyl)[1,2,4]triazolo[4,3-b]pyridazine]", "DC50": 0.53}
{"smiles": "FC(F)(F)c1nnc2ccc(N3CCC(c4cn(CCN5CCCC5)c5ccccc45)CC3)nn12", "note": "[Example 508, 6-[4-[1-(2-pyrrolidin-1-ylethyl)-1H-indol-3-yl]piperidin-1-yl]-3-(trifluoromethyl)[1,2,4]triazolo[4,3-b]pyridazine]", "DC50": 2.2}
